From article PMC7028431 (Science (New York, N.Y.), 2019) come the findings set out here.

This assay addresses GluER (Gluconobacter oxydans, UniProt Q5FTL6, T36A). The assay can be described thus: UV-visible spectrum of reduced enzyme. It is filed as binding. The following applies: dithionite reduction.

With `Cc1cc2c(cc1C)N(C[C@H](O)[C@H](O)[C@H](O)COP(=O)(O)O)c1[nH]c(=O)[nH]c(=O)c1N2` [FMNhq], the “UV-visible spectrum of reduced enzyme” value is on record as “UV-visible spectrum of reduced GluER-T36A (FMNhq)”.
